The record followed here is US8778928B2 (priority 2009, dated 2014).

The term IC50 denotes the point on the concentration scale where inhibition reaches its midpoint. Low readings indicate higher potency, high ones lower potency.

The structures appear in SMILES notation. Where a name gives a salt, the structure may show the parent alone.

Sequence of α7-subtype of nicotinic receptors (Q05941 23-502): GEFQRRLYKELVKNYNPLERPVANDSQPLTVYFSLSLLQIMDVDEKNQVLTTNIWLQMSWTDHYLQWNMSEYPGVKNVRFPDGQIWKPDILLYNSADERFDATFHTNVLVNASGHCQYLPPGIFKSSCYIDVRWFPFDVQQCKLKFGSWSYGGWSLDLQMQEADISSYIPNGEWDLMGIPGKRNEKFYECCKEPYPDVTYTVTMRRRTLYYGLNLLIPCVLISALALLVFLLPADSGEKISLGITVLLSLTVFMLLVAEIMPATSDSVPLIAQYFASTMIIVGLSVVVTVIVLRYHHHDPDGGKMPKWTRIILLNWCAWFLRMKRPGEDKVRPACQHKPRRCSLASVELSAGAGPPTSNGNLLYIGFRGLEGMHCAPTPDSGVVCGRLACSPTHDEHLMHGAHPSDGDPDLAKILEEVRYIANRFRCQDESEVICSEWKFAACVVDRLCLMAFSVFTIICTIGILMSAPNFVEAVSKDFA

The assay concerns the target α7-subtype of nicotinic receptors (Rattus norvegicus, UniProt Q05941). Description: biochemical. It counts as binding.
For `Cn1ccc2ccc(-c3nnc(N4CCN5CCC4CC5)o3)cc21` [Compound A1, 4-[5-(1-Methyl-1H-indol-6-yl)-[1,3,4]oxadiazol-2-yl]-1,4-diaza-bicyclo[3.2.2]nonane fumaric acid salt], the IC50 stood at 0.011 µM. In the case of `FCCn1ccc2ccc(-c3nnc(N4CCN5CCC4CC5)o3)cc21` [Compound A2, 4-{5-[1-(2-Fluoro-ethyl)-1H-indol-6-yl]-[1,3,4]oxadiazol-2-yl}-1,4-diaza-bicyclo[3.2.2]nonane fumaric acid salt], 0.0042 µM corresponded to half-maximal inhibition (IC50). Compared with the last compound, the IC50 is about 2.6-fold lower. Compound `c1cc2ccc(-c3nnc(N4CCN5CCC4CC5)o3)cc2[nH]1` [Compound A3, 2-(1,4-diazabicyclo[3.2.2]nonan-4-yl)-5-(1H-indol-6-yl)-1,3,4-oxadiazole free base] returned an IC50 of 0.016 µM. Compared with the last compound, the IC50 is about 3.8-fold higher. Compound `CC(C)n1ccc2ccc(-c3nnc(N4CCN5CCC4CC5)o3)cc21` [Compound A4, 2-(1,4-diazabicyclo[3.2.2]nonan-4-yl)-5-(1-isopropylindol-6-yl)-1,3,4-oxadiazole free base] had an IC50 of 0.039 µM. Consider `CCn1ccc2ccc(-c3nnc(N4CCN5CCC4CC5)o3)cc21` [Compound A5, 2-(1,4-diazabicyclo[3.2.2]nonan-4-yl)-5-(1-ethylindol-6-yl)-1,3,4-oxadiazole fumaric acid salt], for which the IC50 was 0.003 µM.
